Results reported in US20090075281A1, “MTBE GENES” (REGENTS OF THE UNIVERSITY OF CALIFORNIA, priority 2007, published 2009).

Legend:
M. petroleiphilum PM1 [1] = assay: PM1 growth in mineral salts medium (MSM) on a sole carbon source; format: cell-based, Methylibium petroleiphilum PM1; conditions: for doubling time of PM1 cells, t1/2: cells growing on the substance as sole carbon source; for concentration up to which PM1 is capable of growth: on MSM
M. petroleiphilum PM1 [2] = assay: PM1 tolerance of MTBE on tryptic soy broth media; format: cell-based, Methylibium petroleiphilum PM1
n-alkane grown GPo 1 = conditions: cited from earlier work
[3] = used to calculate solution-phase concentration; cited from earlier work
PM1 = assay: MTBE degradation kinetics by PM1; format: cell-based, Methylibium petroleiphilum PM1

SMILES	doubling time of PM1 cells, t1/2 (M. petroleiphilum PM1 [1])	concentration up to which PM1 is capable of growth (M. petroleiphilum PM1 [1])	tolerated concentration (M. petroleiphilum PM1 [2])	Ks values for MTBE (n-alkane grown GPo 1)	dimensionless Henry's constant [3]	apparent half saturation constant for MTBE (PM1)
CCO [ethanol]	6.1 h	up to 7.9 g/L	–	–	–	–
COC(C)(C)C [MTBE, methyl tert-butyl ether]	15 h	up to 1000 mg/L	up to 5,000 mg/L	20 to 40 mM	0.023	88 µM
